Results: PMC6274095 (Molecules, 2016)

How the values were obtained:
[1] = target: T1, TRPV4 ion channel (Homo sapiens, UniProt Q9HBA0); test: Calcium mobilization assay in HEK293/TRPV4 cells (GSK1016790A-stimulated); assay type: cell-based
T1 construct: host or cells: HEK293
Description: TRPV4 is another critical TRP ion channel that plays a role in thermal and mechanical hyperalgesia. TRPV4 shares similarity with TRPA1 [24, 25]. […] Firstly, the activating effect of the TRPV4 agonist GSK1016790A was tested. […] Thereafter, cardamonin was incubated with HEK293/TRPV4 cells at 90 μM, 30 μM, and 10 μM prior to 83 nM GSK1016790A stimulation. HEK293/TRPV4 cells treated in the absence of the test compound was the negative control and 330 μM ruthenium red was performed as the positive control.
(§1) Recombinant HEK293/TRPA1, HEK293/TRPV1, and HEK293/TRPV4 cell lines were generated by HD Bioscience Co. Ltd (Shanghai, China) following standard procedures as reported previously. HEK293/TRPA1 and HEK293/TRPV4 cells were cultured in complete DMEM medium with 100 μg/mL hygromycin B, 50 U/mL penicillin, and 100 μg/mL streptomycin. HEK293/TRPV1 cells were cultured with 350 μg/mL zeocin and 5 μg/mL blasticidin in complete DMEM culture medium.
(§2) Calcium influx upon TRPA1 activation by agonist stimulation was measured using calcium mobilization assay as reported previously. Briefly, cells were plated into 96-well microplates (matrigel coated) at a density of 3.5 × 10^4 cells per well. The plates were incubated at 37 °C with 5% CO2 overnight to allow the cells to recover. On the following day, replace cell culture medium with loading buffer containing Fluo-4 AM (MD, CA, USA), kept the plate at 37 °C for 30 min. Test compound was added to cells 10 min prior to the onset of TRAP1 agonist cinnamaldehyde, TRPV1 agonist 2APB, or TRPV4 agonist GSK1016790A. The calcium signal was captured with Flexstation II reader (MD, CA, USA) at 37 °C for TRPA1 and TRPV1 activation. The reader chamber was set at 24 °C for TRPV4 activation.

[2] = tested on: neonatal rat cardiomyocytes (CMs); test: Cardiotoxicity evaluation, xCELLigence RTCA cardio impedance; assay type: cell-based; settings: 10 μM
Description: To assess the potential adverse risk in cardiomyocytes, we administrated neonatal rat cardiomyocytes (CMs) with cardamonin, tested at 10 μM (22-fold of the IC50 value). Amiodarone (10 μM), an antiarrhythmic drug that delays cardiac repolarization through inhibiting hERG potassium channels [31], was performed as a positive cardio toxic control [32]. […] Amplitude represented the height of the print. […] Cell index represented cell number and viability. […] Cardiotoxicity test of cardamonin was performed with neonatal rat cardiomyocytes that obtained from 24 h Sprague-Dawley rats [47]. Compound treatment and cardiomyocytes impedance profiles were monitored as previously reported by Yu et al. [48]. Briefly, CMs cells were seeded into cardio E-Plate 96 that pre-coated with matrigel. Thereafter, cell culture medium was refreshed every day until CMs presented stable beating patterns. For compound treatment, 10× chemical dose solutions were prepared and added to the cells. The cell impedance was captured using xCELLigence RTCA cardio instrument.

[3] = target: T2, TRPV1 channel (Homo sapiens, UniProt Q8NER1); test: Calcium mobilization assay in HEK293/TRPV1 cells (2APB-stimulated); assay type: cell-based
T2 construct: host or cells: HEK293
T2 sequence (Q8NER1 whole entry): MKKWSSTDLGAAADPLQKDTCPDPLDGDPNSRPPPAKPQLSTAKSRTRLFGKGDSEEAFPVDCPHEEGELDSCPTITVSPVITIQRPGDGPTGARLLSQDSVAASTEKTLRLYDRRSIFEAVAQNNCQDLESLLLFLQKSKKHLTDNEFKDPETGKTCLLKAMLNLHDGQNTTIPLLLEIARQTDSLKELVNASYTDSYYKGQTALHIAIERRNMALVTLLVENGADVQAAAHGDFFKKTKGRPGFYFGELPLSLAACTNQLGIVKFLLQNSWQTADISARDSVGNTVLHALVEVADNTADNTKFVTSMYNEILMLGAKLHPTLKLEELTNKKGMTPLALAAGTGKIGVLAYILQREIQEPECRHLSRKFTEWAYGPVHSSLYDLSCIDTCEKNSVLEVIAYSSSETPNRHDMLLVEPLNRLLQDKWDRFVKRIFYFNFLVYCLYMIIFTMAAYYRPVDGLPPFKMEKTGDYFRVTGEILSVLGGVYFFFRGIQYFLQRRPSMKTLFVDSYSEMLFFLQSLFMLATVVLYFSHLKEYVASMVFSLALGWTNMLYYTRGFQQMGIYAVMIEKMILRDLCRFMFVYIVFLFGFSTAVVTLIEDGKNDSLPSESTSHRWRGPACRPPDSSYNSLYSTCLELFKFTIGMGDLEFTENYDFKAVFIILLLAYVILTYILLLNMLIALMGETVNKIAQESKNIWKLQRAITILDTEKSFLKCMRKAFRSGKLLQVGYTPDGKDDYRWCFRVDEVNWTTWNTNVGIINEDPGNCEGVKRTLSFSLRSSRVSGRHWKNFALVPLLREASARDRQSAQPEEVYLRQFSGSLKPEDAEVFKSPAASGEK
Description: as §1, §2

[4] = tested on: HEK293 cells; test: HEK293 cell viability, Cell Titer-Glo assay; assay type: cell-based; settings: 24 h
Description: In order to rule out the possibilities of false positives, we tested whether cardamonin induced cytotoxicity in HEK293 cells. The cells were seeded into 96-well plate and incubated in the presence or absence of cardamonin. HEK293 cells were incubated with cardamonin for 24 h. […] HEK293 cell viability was determined based on quantification of ATP using Cell Titer-Glo® luminescent Assay kit (Promega, Madison, WI, USA), which signals the presence of metabolically-active cells. Briefly, HEK293 cells were seeded into 96-well plates at a cell density of 3.5 × 10^4 cells per well, the plates were kept at 37 °C with 5% CO2 overnight. On the following day, cardamonin was added to the cells from a top concentration of 90 μΜ. The cells treated in the absence of the test compound were the negative control. After incubated for 24 h, Cell Titer-Glo reagent was added to the cells and Luminescence was acquired on EnVision™ 2100 Multilabel Reader (PerkinElmer, Santa Clara, CA, USA).

[5] = target: T3, hTRPA1 cation channel (Homo sapiens, UniProt O75762); test: Calcium mobilization assay in HEK293/TRPA1 cells (cinnamaldehyde-stimulated); assay type: cell-based
T3 construct: host or cells: HEK293
T3 sequence (O75762 whole entry): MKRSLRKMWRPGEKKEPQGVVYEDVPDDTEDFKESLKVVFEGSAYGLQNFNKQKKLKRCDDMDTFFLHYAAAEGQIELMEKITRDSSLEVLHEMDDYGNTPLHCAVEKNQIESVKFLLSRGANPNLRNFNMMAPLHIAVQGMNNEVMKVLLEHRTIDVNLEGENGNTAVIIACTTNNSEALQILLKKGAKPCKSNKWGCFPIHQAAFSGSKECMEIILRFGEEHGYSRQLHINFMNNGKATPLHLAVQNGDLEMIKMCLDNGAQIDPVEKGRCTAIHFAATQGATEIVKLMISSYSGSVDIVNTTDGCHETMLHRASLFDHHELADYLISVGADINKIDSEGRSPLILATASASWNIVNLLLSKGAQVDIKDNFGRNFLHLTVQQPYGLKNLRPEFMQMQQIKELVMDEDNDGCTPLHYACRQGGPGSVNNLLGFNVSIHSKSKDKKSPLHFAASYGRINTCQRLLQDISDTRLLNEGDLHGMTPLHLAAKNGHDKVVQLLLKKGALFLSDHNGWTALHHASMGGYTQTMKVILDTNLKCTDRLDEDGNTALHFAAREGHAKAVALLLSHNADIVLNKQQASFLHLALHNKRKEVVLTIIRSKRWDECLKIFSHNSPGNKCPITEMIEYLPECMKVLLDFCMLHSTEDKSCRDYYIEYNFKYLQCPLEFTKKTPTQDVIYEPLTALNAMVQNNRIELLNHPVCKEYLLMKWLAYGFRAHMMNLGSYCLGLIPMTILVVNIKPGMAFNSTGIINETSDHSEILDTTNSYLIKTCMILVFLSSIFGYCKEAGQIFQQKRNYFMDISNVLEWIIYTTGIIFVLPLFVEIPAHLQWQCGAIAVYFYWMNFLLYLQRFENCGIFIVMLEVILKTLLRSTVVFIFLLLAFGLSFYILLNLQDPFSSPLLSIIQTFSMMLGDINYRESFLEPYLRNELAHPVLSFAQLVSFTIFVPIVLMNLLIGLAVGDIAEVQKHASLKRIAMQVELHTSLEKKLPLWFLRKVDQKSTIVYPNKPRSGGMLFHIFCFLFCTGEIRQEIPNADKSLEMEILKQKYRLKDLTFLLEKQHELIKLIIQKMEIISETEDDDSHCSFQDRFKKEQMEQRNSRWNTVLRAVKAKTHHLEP
Description: To discover a novel TRPA1 antagonist, a small library containing 156 natural chemicals were evaluated for their inhibitory effects on the TRPA1 ion channel at 10 μM (Figure 1A). The compound list was released previously. The cells were pre-incubated with cinnamaldehyde (CA) by its EC80 (90 μΜ) for 10 min and then treated with tested compounds. […] The time-course profile of the calcium signal was recorded (Figure 1B) and the peak value was used for determination of the maximum calcium mobilization.
as §1, §2

[6] = target: T3, hTRPA1 cation channel; settings: HEK293/TRPA1 activation; cited from earlier work

T1 sequence (Q9HBA0 whole entry): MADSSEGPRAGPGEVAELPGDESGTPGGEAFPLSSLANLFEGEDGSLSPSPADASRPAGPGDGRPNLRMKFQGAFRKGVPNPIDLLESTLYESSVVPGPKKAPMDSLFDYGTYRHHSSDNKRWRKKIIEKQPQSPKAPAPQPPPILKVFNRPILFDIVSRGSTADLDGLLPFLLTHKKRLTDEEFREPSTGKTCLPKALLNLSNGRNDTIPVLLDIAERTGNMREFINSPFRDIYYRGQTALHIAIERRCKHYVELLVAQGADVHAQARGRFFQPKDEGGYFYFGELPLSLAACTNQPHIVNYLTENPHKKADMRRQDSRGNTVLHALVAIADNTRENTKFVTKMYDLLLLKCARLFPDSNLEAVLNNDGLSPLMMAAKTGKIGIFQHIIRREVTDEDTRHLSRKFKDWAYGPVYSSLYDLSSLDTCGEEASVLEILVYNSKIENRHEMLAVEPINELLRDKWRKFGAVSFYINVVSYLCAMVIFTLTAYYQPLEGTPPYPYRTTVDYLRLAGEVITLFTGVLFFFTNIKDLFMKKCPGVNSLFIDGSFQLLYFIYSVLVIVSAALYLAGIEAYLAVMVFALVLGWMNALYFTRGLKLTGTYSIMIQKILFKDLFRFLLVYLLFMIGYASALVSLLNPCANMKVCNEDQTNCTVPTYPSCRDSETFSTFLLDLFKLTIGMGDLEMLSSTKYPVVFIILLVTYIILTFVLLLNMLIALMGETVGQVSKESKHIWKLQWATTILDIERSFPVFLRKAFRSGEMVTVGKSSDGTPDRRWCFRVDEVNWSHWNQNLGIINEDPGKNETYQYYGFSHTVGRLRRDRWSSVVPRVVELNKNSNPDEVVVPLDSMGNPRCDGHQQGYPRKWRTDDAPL

CC(C)C[C@H](NC(=O)c1cc2ccccc2s1)C(=O)N1CCN(C(=O)[C@H](CO)NS(=O)(=O)c2ccc(Cl)cc2Cl)CC1 [GSK1016790A]
EC50 [1]: 0.0092 µM

CCCCc1oc2ccccc2c1C(=O)c1cc(I)c(OCCN(CC)CC)c(I)c1 [amiodarone, reference compound]
CMs' beating rate [2]: significantly decreased

COc1cc(O)cc(O)c1C(=O)/C=C/c1ccccc1 [cardamonin]
Amplitude profile of CMs [2]: in accordance with vehicle control | CMs' beating pattern (real-time beating impedance) [2]: did not induce dramatic alteration | CMs' beating rate [2]: not | Cell index (CMs cell number and cell viability) [2]: did not significantly decrease | Inhibition of calcium influx in HEK293/TRPV1 cells ([3]; 90 μΜ, 30 μΜ and 10 μΜ, pre-treated 10 min, 1 mM 2APB, 37 °C): failed to inhibit calcium influx | Cytotoxicity in HEK293 cells ([4]; 90 μΜ (top concentration)): slight cell injury | Cytotoxicity in HEK293 cells ([4]; within 30 μΜ, p > 0.05): no detectable cytotoxicity | IC50 [5]: 0.454 µM | Inhibition of CA induced HEK293/TRPA1 activation (screen) ([5]; 10 μM compound, 90 μM cinnamaldehyde): significantly inhibited | Blockage of TRPA1 activity ([5]; at 90 μM compound): Full blockage | Activation of TRPA1 by compound alone ([5]; without agonist): could not activate TRPA1 alone | Inhibition of TRPV4 calcium signal ([1]; 90 μM, 30 μM and 10 μM prior to 83 nM GSK1016790A): No detectable inhibiting effect

O=C/C=C/c1ccccc1 [cinnamaldehyde]
EC80 of TRPA1 agonist [6]: 90 μΜ

Cl.Cl.Cl.Cl.Cl.Cl.N.N.N.N.N.N.N.N.N.N.N.N.N.N.[O-2].[O-2].[Ru+3].[Ru+3].[Ru+4] [ruthenium red, reference compound]
IC50 ([3]; HEK293/TRPV1, 1 mM 2APB stimulation, read-out: IC50, inhibition of TRPV1 activation): 207 µM | IC50 ([1]; HEK293/TRPV4, added 10 min prior to 83 nM GSK1016790A, 24 °C, read-out: IC50, blocking TRPV4 activation): 29.8 µM
